Measurements from article PMC7952052, “Flavonoids and Acid-Hydrolysis derivatives of Neo-Clerodane diterpenes from Teucrium flavum subsp. glaucum as inhibitors of the HIV-1 reverse transcriptase–associated RNase H function” (Journal of Enzyme Inhibition and Medicinal Chemistry, 2021).

What was measured:
[1] = molecular target: T1, HIV-1 RT-associated RDDP function (Human immunodeficiency virus type 1 group M subtype B, UniProt P04585); assay: HIV-1 RNA-dependent DNA polymerase (RDDP) activity determination; format: biochemical; details: for remaining activity at 100 µM: read-out: Percentage of residual enzyme activity (RDDP); for IC50: wt RT
T1 construct: The 1:1 ration between the p66/p51 subunits was also verified; His6; made in house; host or cells: E. coli strain M15
Procedure: (§1) HIV-1 RT group M subtype B. Heterodimeric RT was expressed essentially as previously described. Briefly, E. coli strain M15 containing the p6HRT-prot vector was grown to an optical density at 600 nm of 0.7 and induced with 1.7 mM isopropyl β-D-1-thiogalactopyranoside (IPTG) for 4 h. Protein purification was carried out with a BioLogic LP system (Biorad), using a combination of immobilised metal affinity and ion exchange chromatography. Cell pellets were resuspended in lysis buffer (50 mM sodium phosphate buffer pH 7.8, containing 0.5 mg/mL lysozyme), incubated on ice for 20 min, and after adding NaCl to a final concentration of 0.3 M, were sonicated and centrifuged at […] for 1 h. The supernatant was loaded onto a Ni^2+-NTA-Sepharose column pre-equilibrated with loading buffer (50 mM sodium phosphate buffer pH 7.8, containing 0.3 M NaCl, 10% glycerol, and 10 mM imidazole) and washed thoroughly with wash buffer (50 mM sodium phosphate buffer pH 6.0, containing 0.3 M NaCl, 10% glycerol, and 80 mM imidazole). RT was eluted with an imidazole gradient in wash buffer (0–0.5 M). Fractions were collected, protein purity was checked by SDS-PAGE and found to be higher than 90%. The 1:1 ration between the p66/p51 subunits was also verified. Enzyme-containing fractions were pooled and diluted 1:1 with 50 mM sodium phosphate buffer pH 7.0, containing 10% glycerol; and then loaded into a Hi-trap heparin HP GE (Healthcare Lifescience) pre-equilibrated with 10 column volumes of loading buffer (50 mM sodium phosphate buffer pH 7.0, containing 10% glycerol and 150 mM NaCl). The column was then washed with loading buffer and the RT was eluted with Elute Buffer 2 (50 mM sodium phosphate pH 7.0, 10% glycerol, 1 M NaCl). Fractions were collected, protein was dialysed and stored in buffer containing 50 mM Tris-HCl pH 7.0, 25 mM NaCl, 1 mM EDTA, and 50% glycerol. Catalytic activities and protein concentrations were determined. Enzyme-containing fractions were pooled and aliquots were stored at −80 °C.
RNA-dependent DNA polymerase (RDDP) activity was measured as described[37] using the NNRTI Efavirenz as a control. In 25 µL volume containing 60 mM Tris-HCl buffer pH 8.1, 8 mM MgCl2, 60 mM KCl, 13 mM DTT, 2.5 µM poly (A)- oligo (dT), 100 µM dTTP, increasing concentrations of inhibitor, whose dilution were made in water, and 6 ng of wt RT according to a linear range of dose-response curve. After enzyme addition, the reaction mixture was incubated for 30 min at 37 °C and the stopped by addition of EDTA. Reaction products were detected by picogreen addition and measured with a multilabel counter plate reader Victor 3 (Perkin Elmer model 1420–051) equipped with filters for 502/523 nm (excitation/emission wavelength).

[2] = molecular target: T2, HIV-1 RT-associated RNase H function (Human immunodeficiency virus type 1 group M subtype B, UniProt P04585); assay: HIV-1 DNA polymerase-independent RNase H activity determination (wt RT); format: biochemical; details: for IC50: concentration required to reduce the enzyme activity by 50%, read-out: RnaseH IC50; for remaining activity at 100 µM: in the presence of 100 µM of the compound, read-out: Percentage of residual enzyme activity (RNase H)
T2 construct: The 1:1 ration between the p66/p51 subunits was also verified; His6; made in house; host or cells: E. coli strain M15
Procedure: as §1
(§2) HIV RT-associated RNase H activity was measured as described[36] using the RNase H inhibitor RDS1759[11] as a control. In 100 µL reaction volume containing 50 mM Tris-HCl buffer pH 7.8, 6 mM MgCl2, 1 mM dithiothreitol (DTT), 80 mM KCl, 0.25 µM hybrid RNA/DNA 5′-GAUCUGAGCCUGGGAGCU-Fluorescin-3′ (HPLC, dry, QC: Mass Check) (available from Metabion) 5′-Dabcyl-AGCTCCCAGGCTCAGATC-3′ (HPLC, dry, QC: Mass Check), increasing concentrations of inhibitor, whose dilution were made in water, and 20 ng of wt RT according to a linear range of dose-response curve. The reaction mixture was incubated for 1 h at 37 °C, stopped by addition of EDTA and products were measured with a multilabel counter plate reader Victor 3 (Perkin Elmer model 1420–051) equipped with filters for 490/528 nm (excitation/emission wavelength).

[3] = molecular target: T3, HIV-1 RT A508V, RNase H function (Human immunodeficiency virus type 1 group M subtype B, UniProt P04585, A1095V); assay: RNase H inhibition on mutated RT A508V; format: biochemical
T3 construct: introduce amino acid substitutions into the p66 HIV-1 RT subunit coded in a p6HRT- prot plasmid; His6; made in house; host or cells: E. coli strain M15
Procedure: as §2
(§3) The QuikChange mutagenesis kit (Agilent Technologies Inc., Santa Clara, CA) was used to introduce amino acid substitutions into the p66 HIV-1 RT subunit coded in a p6HRT- prot plasmid by following the manufacturer’s instructions.
(§4) In order to verify this hypothesis, it was chosen to perform site-directed mutagenesis, determining the independent impact of several amino acid substitutions on the potency of the compound to inhibit the RNase H function. All the selected aminoacids are localised in the RNase H domain and are potentially crucial for the binding of RNase H function inhibitors. […]

[4] = molecular target: T4, HIV-1 RT R557A, RNase H function (Human immunodeficiency virus type 1 group M subtype B, UniProt P04585, R1144A); assay: RNase H inhibition on mutated RT R557A; format: biochemical
T4 construct: introduce amino acid substitutions into the p66 HIV-1 RT subunit coded in a p6HRT- prot plasmid; His6; made in house; host or cells: E. coli strain M15
Procedure: as §2, §3, §4

[5] = system: HIV-1 RT R557A, RNase H function; assay: RNase H inhibition on mutated RT R557A; format: biochemical; details: RNase H IC50 ratio mutant/wt
Procedure: as §2, §3, §4

[6] = molecular target: HIV-1 RT L503F, RNase H function (Human immunodeficiency virus 1, UniProt P04585, L1090F); assay: RNase H inhibition on mutated RT L503F; format: biochemical; details: row printed L503F
Procedure: as §2, §3, §4

[7] = molecular target: T5, HIV-1 RT V108F, RNase H function (Human immunodeficiency virus type 1 group M subtype B, UniProt P04585, V695F); assay: RNase H inhibition on mutated RT V108F; format: biochemical
T5 construct: introduce amino acid substitutions into the p66 HIV-1 RT subunit coded in a p6HRT- prot plasmid; His6; made in house; host or cells: E. coli strain M15
Procedure: as §2, §3, §4

[8] = molecular target: T6, HIV-1 RT R448A, RNase H function (Human immunodeficiency virus type 1 group M subtype B, UniProt P04585, R1035A); assay: RNase H inhibition on mutated RT R448A; format: biochemical
T6 construct: introduce amino acid substitutions into the p66 HIV-1 RT subunit coded in a p6HRT- prot plasmid; His6; made in house; host or cells: E. coli strain M15
Procedure: as §2, §3, §4

[9] = system: HIV-1 RT R448A, RNase H function; assay: RNase H inhibition on mutated RT R448A; format: biochemical; details: RNase H IC50 ratio mutant/wt
Procedure: as §2, §3, §4

[10] = system: HIV-1 RT A502F, RNase H function; assay: RNase H inhibition on mutated RT A502F; format: biochemical; details: RNase H IC50 ratio mutant/wt
Procedure: (§5) HIV RT-associated RNase H activity was measured as described[36] using the RNase H inhibitor RDS1759[11] as a control. In 100 µL reaction volume containing 50 mM Tris-HCl buffer pH 7.8, 6 mM MgCl2, 1 mM dithiothreitol (DTT), 80 mM KCl, 0.25 µM hybrid RNA/DNA 5′-[sequence]-Fluorescin-3′ (HPLC, dry, QC: Mass Check) (available from Metabion) 5′-Dabcyl-[sequence]-3′ (HPLC, dry, QC: Mass Check), increasing concentrations of inhibitor, whose dilution were made in water, and 20 ng of wt RT according to a linear range of dose-response curve. The reaction mixture was incubated for 1 h at 37 °C, stopped by addition of EDTA and products were measured with a multilabel counter plate reader Victor 3 (Perkin Elmer model 1420–051) equipped with filters for 490/528 nm (excitation/emission wavelength).
(§6) The next mutation involved the residue A502 located in the alpha helix, close to the second identified allosteric binding pocket. […] A502 residue was replaced by a phenylalanine with the aim to provoke a shift of alpha helix that might reduce the space between the two subunits p51 and p66 and therefore hinder the entrance of the compound in the pocket.

[11] = molecular target: T7, HIV-1 RT A502F, RNase H function (Human immunodeficiency virus type 1 group M subtype B, UniProt P04585, A1089F); assay: RNase H inhibition on mutated RT A502F; format: biochemical
T7 construct: introduce amino acid substitutions into the p66 HIV-1 RT subunit coded in a p6HRT- prot plasmid; His6; made in house; host or cells: E. coli strain M15
Procedure: as §5, §6

HIV-1 integrase = system: HIV-1 integrase; design: method as in earlier work; details: cited from earlier work
[12] = in the presence of 100 µM of the compound

Row | Compound | remaining activity at 100 µM [1, 12] | IC50 [1] | folds less active on RNase H than flavuglaucin B (7) ([2]; wt RT) | IC50 ([2]; wt RT) | remaining activity at 100 µM [2] | other results
1 | CC(=O)OCC1=CCCC2C1=CCC(C)C21CC(c2ccoc2)OC1=O (stereo not shown) [Compound 6, Flavuglaucin A] | 80% | > 100 µM | about two | 20.2 ± 2 µM | – | –
2 | COc1cc2oc(-c3ccc(O)cc3)cc(=O)c2c(O)c1OC [Compound 2, cirsimaritin] | – | – | – | 89 ± 7 µM | – | decrease in RNase H inhibitory activity relative to cirsiliol (3) ([2]; wt RT): 10 folds
3 | COc1ccc(-c2cc(=O)c3c(O)c(OC)c(OC)cc3o2)cc1 [Compound 1, salvigenin] | – | – | – | > 100 µM | 80% | –
4 | CC1=C2CCC(C)C3(CC(c4ccoc4)OC3=O)C2CCC1=O (stereo not shown) [Compound 8, Flavuglaucin C] | 80% | > 100 µM | about six | 52.4 ± 0.4 µM | – | –
5 | CC(=O)OCC1=C2C(COC3OC(CO)C(O)C(O)C3OC(C)=O)CC(C)C3(CC(c4ccoc4)OC3=O)C2CCC1 (stereo not shown) [Compound 5, teuflavoside] | – | – | – | > 100 µM | 74% | –
6 | CC(=O)OCC12C(O)CC(C)C3(CC(c4ccoc4)OC3=O)C1CCC(=O)C21CO1 (stereo not shown) [Compound 4, teuflavin] | – | – | – | > 100 µM | 80% | –
7 | CC1CCC2=C(C=O)CCCC2C12CC(c1ccoc1)OC2=O (stereo not shown) [Compound 9] | 80% | > 100 µM | four | 36.4 ± 0.4 µM | – | –
8 | CC1CC=C2C(CO)=CCCC2C12CC(c1ccoc1)OC2=O (stereo not shown) [Compound 7, Flavuglaucin B] | – | > 100 µM | – | 9.1 ± 0.2 µM | – | Percentage of residual enzyme activity (RDDP) [1, 12]: 80%; IC50 [3]: > 100 µM; IC50 [4]: 59.2 µM; loss in potency, R557A vs wild type [5]: 6.5 fold; IC50 [6]: 27.3 µM; change of RNase H IC50 against V108F compared with the wild type enzyme [7]: slight increase in IC50; IC50 [8]: 49.7 µM; loss in potency, R448A vs wild type [9]: 5.5 fold; loss in potency, A502F vs wild type [10]: 3.5 fold; IC50 [11]: 32.8 µM
9 | COc1cc2oc(-c3ccc(O)c(O)c3)cc(=O)c2c(O)c1OC [Compound 3, cirsiliol] | – | – | – | 8.2 ± 0.6 µM | – | concentration inhibiting HIV-1 integrase (HIV-1 integrase): 12 µM
